# Assay results as given in patent US5292742A, “Angiotensin II receptor blocking 2,3,6 substituted quinazolinones” (American Cyanamid Company, priority 1993, dated 1994).
# Target: T1, Angiotensin II Receptor (Bos taurus, UniProt P25104)
# T1 construct: The brownish tissue forming the adrenal cortex is scraped off and finely minced with scissors before homogenization; tissue Maxwell-Cohen (local slaughter house); host or cells: beef adrenal cortex, microsomal (100,000 x g) membranes
# T1 sequence (P25104 1-359): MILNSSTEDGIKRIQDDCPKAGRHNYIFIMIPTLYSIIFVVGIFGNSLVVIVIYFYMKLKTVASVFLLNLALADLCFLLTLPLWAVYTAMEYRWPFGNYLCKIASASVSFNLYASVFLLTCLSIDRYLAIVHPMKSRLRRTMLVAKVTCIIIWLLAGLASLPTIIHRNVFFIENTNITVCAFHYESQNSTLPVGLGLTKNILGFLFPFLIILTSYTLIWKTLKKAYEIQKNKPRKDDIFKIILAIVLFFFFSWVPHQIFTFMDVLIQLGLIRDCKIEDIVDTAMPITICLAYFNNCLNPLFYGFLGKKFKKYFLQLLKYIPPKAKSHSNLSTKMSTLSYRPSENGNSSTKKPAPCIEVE
# Experiment: [125I](Sar1,Ile8)AngII receptor binding assay, bovine adrenal cortex membranes
# Conditions: beef adrenal cortex membranes
# From the text: Beef adrenals are obtained from a local slaughter house (Maxwell-Cohen). [^125 I](Sar^1,ILe^8)-AngII, S.A. 2200 Ci/mmole, is purchased from Dupont (NEN®, Boston, Mass.). All unlabeled AngII analogs, Dimethylsulfoxide (DMSO), nucleotides, bovine serum albumin (BSA) are purchased from Sigma Chemical Co., St. Louis, MO U.S.A.
# Approximately sixteen (16) to twenty (20) beef adrenal glands are processed as follows: fresh adrenal glands received on crushed ice are cleaned of fatty tissues and the tough membranes encapsulating the glands are removed and discarded. The brownish tissue forming the adrenal cortex is scraped off and finely minced with scissors before homogenization. Care is taken to avoid contamination with medullary tissue during dissection. The scraped cortices are suspended in twenty volumes of an ice-cold buffer medium consisting of 10 mM Tris.HCl (pH 7.4 at 22° C.) and containing 1.0 mM EDTA and 0.2M sucrose. Unless otherwise indicated, all subsequent operations are done at 4° C. […] The homogenate is centrifuged first at low speed (3,000 ×g) for 10 min. […] A 100 ul aliquot is withdrawn and the protein content of the preparation is determined by the Lowry's method (Lowry, O.H., Rosebrough, N.F., Farr, A.L. and Randall, R.J., Protein measurement with Folin phenol reagent. J. Biol. Chem., […], 265-275, 1951). […]
row,Structure (SMILES),IC50
1,"CCCCc1nc2ccc(C3=NN4CCCC4C3)cc2c(=O)n1Cc1ccc(-c2ccccc2-c2nnn[nH]2)cc1 (centres unmarked) [Example 10, 2-Butyl-6-(3a,4,5,6-tetrahydro-3H-pyrrolo[1,2-b]-pyrazol-2-yl)-3-[[2'-(1H-tetrazol-5-yl)[1,1'-biphenyl]-4-yl]methyl]-4(3H)-quinazolinone]",102 nM
2,CCCCc1nc2ccc(C3=NN4CCCCC4C3)cc2c(=O)n1Cc1ccc(-c2ccccc2-c2nnn[nH]2)cc1 (centres unmarked) [Example 11],56.4 nM
